pEC50: −log10 of the molar value.
Molecular target: T1, F508del (Homo sapiens, UniProt P13569, DEL508-508)
T1 construct: expressed in transfected cells
Assay: Membrane potential optical assay (FRET voltage-sensor dyes), identification of correction compounds
Assay type: cell-based
Settings: NIH3T3 cells stably expressing F508del, procedures described above; for Emax: maximum efficacy, read-out: Max Efficacy; for pEC50: modulation of CFTR activity
Experimental: (§1) NIH3T3 mouse fibroblasts stably expressing F508del are used for optical measurements of membrane potential. The cells are maintained at 37° C. in 5% CO2 and 90% humidity in Dulbecco's modified Eagle's medium supplemented with 2 mM glutamine, 10% fetal bovine serum, 1×NEAA, β-ME, 1× pen/strep, and 25 mM HEPES in 175 cm^2 culture flasks. For all optical assays, the cells were seeded at 12,000 cells/well in 384-well matrigel-coated plates and cultured for 18-24 hrs at 37° C. for the potentiator assay. For the correction assays, the cells are cultured at 37° C. with and without compounds for 18-24 hours.
Membrane potential optical methods for assaying F508del modulation properties of compounds.
The optical membrane potential assay utilized voltage-sensitive FRET sensors described by Gonzalez and Tsien (See Gonzalez, J. E. and R. Y. Tsien (1995) “Voltage sensing by fluorescence resonance energy transfer in single cells” Biophys J 69(4): 1272-80, and Gonzalez, J. E. and R. Y. Tsien (1997) “Improved indicators of cell membrane potential that use fluorescence resonance energy transfer” Chem Biol 4(4): 269-77) in combination with instrumentation for measuring fluorescence changes such as the Voltage/Ion Probe Reader (VIPR) (See, Gonzalez, J. E., K. Oades, et al. (1999) “Cell-based assays and instrumentation for screening ion-channel targets” Drug Discov Today 4(9): 431-439).
These voltage sensitive assays are based on the change in fluorescence resonant energy transfer (FRET) between the membrane-soluble, voltage-sensitive dye, DiSBAC2(3), and a fluorescent phospholipid, CC2-DMPE, which is attached to the outer leaflet of the plasma membrane and acts as a FRET donor. Changes in membrane potential (Vm) cause the negatively charged DiSBAC2(3) to redistribute across the plasma membrane and the amount of energy transfer from CC2-DMPE changes accordingly. The changes in fluorescence emission were monitored using VIPR™ II, which is an integrated liquid handler and fluorescent detector designed to conduct cell-based screens in 96- or 384-well microtiter plates.
To identify small molecules that correct the trafficking defect associated with F508del; a single-addition HTS assay format was developed. The cells were incubated in serum-free medium for 16 hrs at 37° C. in the presence or absence (negative control) of test compound. As a positive control, cells plated in 384-well plates were incubated for 16 hrs at 27° C. to “temperature-correct” F508del. The cells were subsequently rinsed 3× with Krebs Ringers solution and loaded with the voltage-sensitive dyes. To activate F508del, 10 μM forskolin and the CFTR potentiator, genistein (20 μM), were added along with Cl^−-free medium to each well. The addition of Cl^−-free medium promoted Cl^− efflux in response to F508del activation and the resulting membrane depolarization was optically monitored using the FRET-based voltage-sensor dyes.
• Bath Solution #1: (in mM) NaCl 160, KCl 4.5, CaCl2 2, MgCl2 1, HEPES 10, pH 7.4 with NaOH. • Chloride-free bath solution: Chloride salts in Bath Solution #1 (above) are substituted with gluconate salts. • CC2-DMPE: Prepared as a 10 mM stock solution in DMSO and stored at −20° C. • DiSBAC2(3): Prepared as a 10 mM stock in DMSO and stored at −20° C. Cell Culture
as §1, with “seeded at 30,000/well in 384-well” for “seeded at 12,000 cells/well in 384-well”, “cultured for 2 hrs at” for “cultured for 18-24 hrs at”, “37° C. before culturing at 27° C. for 24 hrs for the” for “37° C. for the”, “cultured at 27° C. or 37° C.” for “cultured at 37° C.”, “compounds for 16-24 hours.” for “compounds for 18-24 hours.”

T1 sequence (P13569 with tags, fused parts or gaps DEL508-508): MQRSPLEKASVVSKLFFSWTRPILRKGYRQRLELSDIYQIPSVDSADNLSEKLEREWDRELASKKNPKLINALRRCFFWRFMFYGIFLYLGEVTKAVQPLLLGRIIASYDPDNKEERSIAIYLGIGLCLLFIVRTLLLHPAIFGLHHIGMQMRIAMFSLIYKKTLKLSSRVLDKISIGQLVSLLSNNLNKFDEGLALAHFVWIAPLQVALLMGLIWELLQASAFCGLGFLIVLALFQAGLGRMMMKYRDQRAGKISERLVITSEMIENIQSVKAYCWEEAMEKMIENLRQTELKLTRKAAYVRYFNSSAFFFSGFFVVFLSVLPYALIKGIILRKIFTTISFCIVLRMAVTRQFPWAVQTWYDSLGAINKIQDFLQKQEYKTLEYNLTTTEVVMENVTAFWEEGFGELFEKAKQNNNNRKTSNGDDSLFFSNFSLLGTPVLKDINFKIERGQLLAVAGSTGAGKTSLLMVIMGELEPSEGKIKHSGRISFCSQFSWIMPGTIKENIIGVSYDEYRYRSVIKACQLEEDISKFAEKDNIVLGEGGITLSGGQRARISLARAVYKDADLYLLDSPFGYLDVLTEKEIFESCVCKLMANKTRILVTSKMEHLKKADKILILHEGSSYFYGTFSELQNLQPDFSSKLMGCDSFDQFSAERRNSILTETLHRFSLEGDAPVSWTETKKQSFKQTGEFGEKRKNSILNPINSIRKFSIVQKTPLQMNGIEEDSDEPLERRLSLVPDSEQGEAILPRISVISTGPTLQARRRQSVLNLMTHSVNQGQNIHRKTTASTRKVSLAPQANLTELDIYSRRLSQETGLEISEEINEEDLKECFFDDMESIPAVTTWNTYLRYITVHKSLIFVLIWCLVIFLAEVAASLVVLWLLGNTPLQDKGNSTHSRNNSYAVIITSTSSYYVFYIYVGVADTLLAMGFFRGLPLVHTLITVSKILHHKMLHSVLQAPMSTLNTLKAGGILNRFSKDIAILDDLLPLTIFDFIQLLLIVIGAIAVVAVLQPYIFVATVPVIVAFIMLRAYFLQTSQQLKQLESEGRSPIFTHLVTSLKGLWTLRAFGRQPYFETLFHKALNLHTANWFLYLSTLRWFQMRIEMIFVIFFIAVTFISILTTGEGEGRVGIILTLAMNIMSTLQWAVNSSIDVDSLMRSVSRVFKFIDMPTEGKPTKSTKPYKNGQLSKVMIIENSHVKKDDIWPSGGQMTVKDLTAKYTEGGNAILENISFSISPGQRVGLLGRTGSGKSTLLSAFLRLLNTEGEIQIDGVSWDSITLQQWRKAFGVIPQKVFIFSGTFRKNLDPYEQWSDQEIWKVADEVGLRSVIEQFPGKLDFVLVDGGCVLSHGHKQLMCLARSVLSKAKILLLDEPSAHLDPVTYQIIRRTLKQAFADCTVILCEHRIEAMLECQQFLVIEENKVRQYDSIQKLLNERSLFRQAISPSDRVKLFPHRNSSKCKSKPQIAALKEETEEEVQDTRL

Row | Structure (SMILES) | Emax [%] | pEC50
1 | CC(C)COc1cc(F)cc(-c2ccc(C(=O)NS(=O)(=O)c3cccc(N)n3)c(N(C)CC(F)F)n2)c1 [Compound 1, N-[(6-amino-2-pyridyl)sulfonyl]-2-[2,2-difluoroethyl(methyl)amino]-6-(3-fluoro-5-isobutoxy-phenyl)pyridine-3-carboxamide] | > 80 | > 5.52
2 | CC(C)CCOc1nc(-c2cc(F)cc(OCC(C)C)c2)ccc1C(=O)NS(=O)(=O)c1cccc(N)n1 [Compound 2, N-[(6-amino-2-pyridyl)sulfonyl]-6-(3-fluoro-5-isobutoxy-phenyl)-2-isopentyloxy-pyridine-3-carboxamide] | > 80 | > 5.52
3 | CC(C)COc1cc(F)cc(-c2ccc(C(=O)NS(=O)(=O)c3cccc(N)n3)c(OCCC(C)(C)C)n2)c1 [Compound 3, N-[(6-amino-2-pyridyl)sulfonyl]-2-(3,3-dimethylbutoxy)-6-(3-fluoro-5-isobutoxy-phenyl)pyridine-3-carboxamide] | > 80 | > 5.52
4 | CC(C)COc1cc(F)cc(-c2ccc(C(=O)NS(=O)(=O)c3cccc(N)n3)c(OCCOC(C)(C)C)n2)c1 [Compound 4, N-[(6-amino-2-pyridyl)sulfonyl]-2-(2-tert-butoxyethoxy)-6-(3-fluoro-5-isobutoxy-phenyl)pyridine-3-carboxamide] | 30 to 80 | > 5.52
5 | CC(C)COc1cc(F)cc(-c2ccc(C(=O)NS(=O)(=O)c3cccc(N)n3)c(OC(C)C)n2)c1 [Compound 5, N-[(6-amino-2-pyridyl)sulfonyl]-6-(3-fluoro-5-isobutoxy-phenyl)-2-isopropoxy-pyridine-3-carboxamide] | > 80 | > 5.52
6 | CC(C)COc1cc(F)cc(-c2ccc(C(=O)NS(=O)(=O)c3cccc(N)n3)c(OC(C)C(F)(F)C(F)F)n2)c1 (centres unmarked) [Compound 6, N-[(6-amino-2-pyridyl)sulfonyl]-6-(3-fluoro-5-isobutoxy-phenyl)-2-(2,2,3,3-tetrafluoro-1-methyl-propoxy)pyridine-3-carboxamide] | 30 to 80 | > 5.52
7 | CC(C)COc1cc(F)cc(-c2ccc(C(=O)NS(=O)(=O)c3cccc(N)n3)c3nc(C(F)(F)F)cn23)c1 [Compound 7, N-[(6-amino-2-pyridyl)sulfonyl]-5-(3-fluoro-5-isobutoxy-phenyl)-2-(trifluoromethyl)imidazo[1,2-a]pyridine-8-carboxamide] | 30 to 80 | > 5.52
8 | CCN(CC)c1nc(-c2ccc(OC(C)C)nc2)ccc1C(=O)NS(=O)(=O)c1cccc(N)n1 [Compound 8, N-((6-Aminopyridin-2-yl)sulfonyl)-6-(diethylamino)-6′-isopropoxy-[2,3′-bipyridine]-5-carboxamide] | 30 to 80 | 5.00 to 5.52
9 | CC(C)COc1cc(F)cc(-c2ccc(C(=O)NS(=O)(=O)c3cccc(N)n3)c(OC(C)CC(F)(F)F)n2)c1 (centres unmarked) [Compound 9, N-[(6-amino-2-pyridyl)sulfonyl]-6-(3-fluoro-5-isobutoxy-phenyl)-2-(3,3,3-trifluoro-1-methyl-propoxy)pyridine-3-carboxamide] | 30 to 80 | > 5.52
10 | COc1nc(-c2cc(F)cc(OCC(C)C)c2)ccc1C(=O)NS(=O)(=O)c1cccc(N)n1 [Compound 10, N-[(6-amino-2-pyridyl)sulfonyl]-6-(3-fluoro-5-isobutoxy-phenyl)-2-methoxy-pyridine-3-carboxamide] | 30 to 80 | > 5.52
11 | CCCCCOc1nc(-c2cc(F)cc(OCC(C)C)c2)ccc1C(=O)NS(=O)(=O)c1cccc(N)n1 [Compound 11, N-[(6-amino-2-pyridyl)sulfonyl]-6-(3-fluoro-5-isobutoxy-phenyl)-2-pentoxy-pyridine-3-carboxamide] | > 80 | > 5.52
12 | CCC(C)C(C)Oc1nc(-c2cc(F)cc(OCC(C)C)c2)ccc1C(=O)NS(=O)(=O)c1cccc(N)n1 (centres unmarked) [Compound 12, N-[(6-amino-2-pyridyl)sulfonyl]-2-(1,2-dimethylbutoxy)-6-(3-fluoro-5-isobutoxy-phenyl)pyridine-3-carboxamide] | > 80 | > 5.52
13 | CCOCCOc1nc(-c2cc(F)cc(OCC(C)C)c2)ccc1C(=O)NS(=O)(=O)c1cccc(N)n1 [Compound 13, N-[(6-amino-2-pyridyl)sulfonyl]-2-(2-ethoxyethoxy)-6-(3-fluoro-5-isobutoxy-phenyl)pyridine-3-carboxamide] | 30 to 80 | > 5.52
14 | CCN(c1nc(-c2ccc(OC(C)C)nc2)ccc1C(=O)NS(=O)(=O)c1cccc(N)n1)C(C)C [Compound 14, N-[(6-amino-2-pyridyl)sulfonyl]-2-[ethyl(isopropyl)amino]-6-(6-isopropoxy-3-pyridyl)pyridine-3-carboxamide] | 30 to 80 | > 5.52
15 | CC(C)(C)COc1nc(C(C)(C)C)ccc1C(=O)NS(=O)(=O)c1cccc(N)n1 [Compound 15, N-[(6-amino-2-pyridyl)sulfonyl]-6-tert-butyl-2-(2,2-dimethylpropoxy)pyridine-3-carboxamide] | 30 to 80 | > 5.52
16 | CCN(c1nc(-c2cc(F)cc(OCC(C)C)c2)ccc1C(=O)NS(=O)(=O)c1ccn[nH]1)C(C)C [Compound 16, 2-[ethyl(isopropyl)amino]-6-(3-fluoro-5-isobutoxy-phenyl)-N-(1H-pyrazol-5-ylsulfonyl)pyridine-3-carboxamide] | > 80 | > 5.52
17 | CC(C)COc1cc(F)cc(-c2ccc(C(=O)NS(=O)(=O)c3cccc(N)n3)c(N(C)[C@@H](C)C(F)(F)F)n2)c1 [Compound 17, N-[(6-amino-2-pyridyl)sulfonyl]-6-(3-fluoro-5-isobutoxy-phenyl)-2-[methyl-[(1 S)-2,2,2-trifluoro-1-methyl-ethyl]amino]pyridine-3-carboxamide] | > 80 | > 5.52
18 | CCC(COC)Oc1nc(-c2cc(F)cc(OCC(C)C)c2)ccc1C(=O)NS(=O)(=O)c1cccc(N)n1 (centres unmarked) [Compound 18, N-[(6-amino-2-pyridyl)sulfonyl]-6-(3-fluoro-5-isobutoxy-phenyl)-2-[1-(methoxymethyl)propoxy]pyridine-3-carboxamide] | 30 to 80 | > 5.52
19 | CC(C)COc1cc(F)cc(-c2ccc(C(=O)NS(=O)(=O)c3cccc(N)n3)c(N(C)C)n2)c1 [Compound 19, N-[(6-amino-2-pyridyl)sulfonyl]-2-(dimethylamino)-6-(3-fluoro-5-isobutoxy-phenyl)pyridine-3-carboxamide] | > 80 | > 5.52
20 | COC[C@H](C)Oc1nc(-c2cc(F)cc(OCC(C)C)c2)ccc1C(=O)NS(=O)(=O)c1cccc(N)n1 [Compound 20, N-[(6-amino-2-pyridyl)sulfonyl]-6-(3-fluoro-5-isobutoxy-phenyl)-2-[(1S)-2-methoxy-1-methyl-ethoxy]pyridine-3-carboxamide] | 30 to 80 | > 5.52
21 | COCCCOc1nc(-c2cc(F)cc(OCC(C)C)c2)ccc1C(=O)NS(=O)(=O)c1cccc(N)n1 [Compound 21, N-[(6-amino-2-pyridyl)sulfonyl]-6-(3-fluoro-5-isobutoxy-phenyl)-2-(3-methoxypropoxy)pyridine-3-carboxamide] | 30 to 80 | > 5.52
22 | COC(C)(C)CCOc1nc(-c2cc(F)cc(OCC(C)C)c2)ccc1C(=O)NS(=O)(=O)c1cccc(N)n1 [Compound 22, N-[(6-amino-2-pyridyl)sulfonyl]-6-(3-fluoro-5-isobutoxy-phenyl)-2-(3-methoxy-3-methyl-butoxy)pyridine-3-carboxamide] | 30 to 80 | > 5.52

From patent US10738030B2, “Modulators of cystic fibrosis transmembrane conductance regulator” (Vertex Pharmaceuticals Incorporated, priority 2016, dated 2020)
